Assays:
Mouse absorption test = type: in vivo; details: mice, intragastric 10 mg/kg, plasma
Protocol: (§1) Experimental method: mice were used as experimental animals, and drugs were administered intragastrically at 10 mg/kg (5% DMSO+5% Solutol+90% saline). The blood collection time points for intragastric administration were 0.25, 0.5, 1, 2, 4, 6, 8, and 24 h. 0.3 ml of whole blood was taken, and 0.1 ml of plasma was taken after centrifugation and analyzed by LC-MS.

BTK = molecular target: T1, BTK (Homo sapiens, UniProt Q06187); test: BTK degradation activity test in Mino cells (Westernblot or Elisa); type: cell-based; details: 24-72 h incubation
T1 construct: endogenous in cells; host or cells: Mino cells
Protocol: The Mino cell line cells are 0.5˜1 million/well in 6-well plates. The compounds are diluted to different concentrations, added to the plate, and after 24-72 h of incubation, the cells are collected. After the cells were lysed, the total protein concentration in each well was determined with a BCA kit. The amount of BTK is determined using the Westernblot or Elisa method.

Mino cells = test: Inhibitory activity on Mino cell proliferation (MTS); type: cell-based; details: Homo sapiens, 72 h or 168 h
Protocol: (§2) The anti-tumor efficacy of the compounds was tested by measuring their inhibitory effects on OCI-LY10 and Mino cell proliferation. OCI-LY10 and Mino cells were cultured in RPM-1640 medium containing […] fetal calf serum. OCI-LY10 and Mino cells were digested, inoculated in a 96-well plate at a cell concentration of 10000 cells/well, and incubated overnight at 37° C., 5% CO2. Compounds of different concentrations (1000 nM, 4-fold dilution, 8 points) were added to the 96-well plate and incubated for 72 h or 168 h at 37° C. and […], and then 20 μL of MTS was added to each well. After incubation for 2 h, 25 μl of 10% SDS was added to each well to terminate the reaction. The absorbance at 490 nm and 650 nm were measured with a microplate reader. IC50 was calculated using GraphPad Prism 5.0.

[1] = Liver microsomal metabolic stability, mouse; type: in vitro ADME; details: mouse liver microsomes, NADPH, 37° C.
Protocol: (§3) Under the condition of ice bath, 1 mg of human or Mouse liver microparticles was add to PBS (1 mL) buffer, then NADPH (20 μL) was added, and incubated at 37° C. for 5 min. 10 μL of the compound to be tested was added, then suck several times with a pipette and divide into 3 aliquots of 330 μL; each and then samples were taken at 0, 15, 30, 60 and 120 min respectively. 10 μL of the solution was taken with a pipette each time and added to 490 μL of the solution containing the internal standard compound. The resulting solution was vortexed and then placed on ice, and then sampling at another time point continues. All samples were centrifuged at 10,000 rpm for 10 min, and the supernatant was taken for LC/MS testing. The metabolism of the compound in liver microsomes was calculated based on the peak area.

OCI-LY10 cells = test: Inhibitory activity on OCI-LY10 cell proliferation (MTS); type: cell-based; details: Homo sapiens, 72 h or 168 h
Protocol: as §2

[2] = Liver microsomal metabolic stability, human; type: in vitro ADME; details: human liver microsomes, NADPH, 37° C.
Protocol: as §3

Rat absorption test = type: in vivo; details: SD rats, intragastric 10 mg/kg, plasma
Protocol: as §1, with “SD Rats” for “Experimental method: mice”, “Solutol+90% normal” for “Solutol+90%”

T1 sequence (Q06187 whole entry): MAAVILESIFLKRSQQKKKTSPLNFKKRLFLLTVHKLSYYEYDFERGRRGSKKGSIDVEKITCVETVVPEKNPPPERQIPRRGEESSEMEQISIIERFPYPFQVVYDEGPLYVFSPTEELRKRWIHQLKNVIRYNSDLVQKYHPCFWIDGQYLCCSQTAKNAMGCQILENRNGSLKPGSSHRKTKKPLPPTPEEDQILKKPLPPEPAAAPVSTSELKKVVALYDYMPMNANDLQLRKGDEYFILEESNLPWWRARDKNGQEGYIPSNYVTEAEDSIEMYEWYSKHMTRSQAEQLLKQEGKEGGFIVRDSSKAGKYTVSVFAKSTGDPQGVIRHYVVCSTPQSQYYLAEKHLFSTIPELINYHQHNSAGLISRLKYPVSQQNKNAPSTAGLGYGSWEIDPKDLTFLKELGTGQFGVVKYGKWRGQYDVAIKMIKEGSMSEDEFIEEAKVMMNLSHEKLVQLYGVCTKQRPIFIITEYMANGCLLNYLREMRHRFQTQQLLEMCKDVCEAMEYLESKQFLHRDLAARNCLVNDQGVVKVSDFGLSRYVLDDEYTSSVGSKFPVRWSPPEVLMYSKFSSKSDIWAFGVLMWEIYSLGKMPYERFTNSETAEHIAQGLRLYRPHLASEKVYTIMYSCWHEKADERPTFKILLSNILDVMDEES

SMILES	DNAUC (Mouse absorption test)	DC50 (BTK) [nM]	Thalf (min) Mouse [1] [min]	IC50 (OCI-LY10 cells) [nM]	Thalf (min) Human [2] [min]	DNAUC (Rat absorption test)	IC50 (Mino cells) [nM]
NC(=O)c1nnc(N2CCCCC2)nc1Nc1ccc(C2CCN(CC3CCN(c4ccc5c(c4)C(=O)N(C4CCC(=O)NC4=O)C5=O)CC3)CC2)c(F)c1 (stereo not drawn) [Compound 007, 5-((4-(1-((1-(2-(2,6-dioxopiperidin-3-yl)-1,3-dioxoisoindolin-5-yl)piperidin-4-yl)methyl)piperidin-4-yl)-3-fluorophenyl)amino)-3-(piperidin-1-yl)-1,2,4-triazine-6-carboxamide]	1955 AUC (h*ng/mL)/dose (mg/kg)	< 10	–	–	–	–	5.31
CC(=O)N[C@@H]1CCCN(c2nnc(C(N)=O)c(Nc3ccc(C4CCN(CC5CCN(c6ccc7c(c6)C(=O)N(C6CCC(=O)NC6=O)C7=O)C5)CC4)cc3)n2)C1 (stereo partly drawn) [Compound 016, 3-((R)-3-acetamidopiperidin-1-yl)-5-((4-(1-((1-(2-(2,6-dioxopiperidin-3-yl)-1,3-dioxoisoindolin-5-yl)pyrrolidin-3-yl)methyl)piperidin-4-yl)phenyl)amino)-1,2,4-triazine-6-carboxamide]	–	< 10	49	0.32	37	–	1.45
CC(=O)N[C@@H]1CCCN(c2nnc(C(N)=O)c(Nc3ccc(C4CCN(CC5CCN(c6ccc7c(c6)C(=O)N(C6CCC(=O)NC6=O)C7=O)CC5)CC4)cc3)n2)C1 (stereo partly drawn) [Compound 023, 3-((R)-3-acetamidopiperidin-1-yl)-5-((4-(1-((1-(2-(2,6-dioxopiperidin-3-yl)-1,3-dioxoisoindolin-5-yl)piperidin-4-yl)methyl)piperidin-4-yl)phenyl)amino)-1,2,4-triazine-6-carboxamide]	–	< 10	59	0.69	20	–	6.75
NC(=O)c1nnc(N2CCCCC2)nc1Nc1ccc(N2CCC(CN3CCN(c4cc5c(cc4F)C(=O)N(C4CCC(=O)NC4=O)C5=O)CC3)CC2)cc1 (stereo not drawn) [Compound 046, 5-((4-(4-((4-(2-(2,6-dioxopiperidin-3-yl)-6-fluoro-1,3-dioxoisoindolin-5-yl)piperazin-1-yl)methyl)piperidin-1-yl)phenyl)amino)-3-(piperidin-1-yl)-1,2,4-triazine-6-carboxamide]	1867 AUC (h*ng/mL)/dose (mg/kg)	< 10	–	–	–	–	–
NC(=O)c1nnc(N2CCCCC2)nc1Nc1ccc(N2CCN(CC3CCN(c4ccc(C(=O)NC5CCC(=O)NC5=O)nc4)C3)CC2)c(F)c1 (stereo not drawn) [Compound 079, 5-((4-(4-((1-(6-((2,6-dioxopiperidin-3-yl)carbamoyl)pyridin-3-yl)pyrrolidin-3-yl)methyl)piperazin-1-yl)-3-fluorophenyl)amino)-3-(piperidin-1-yl)-1,2,4-triazine-6-carboxamide]	–	< 10	–	1.15	–	6611 AUC (h*ng/mL)/dose (mg/kg)	–
NC(=O)c1nnc(N2CCCCC2)nc1Nc1ccc(N2CCN(CC3CCN(c4ncc(-c5ccc(=O)[nH]n5)cc4C(F)(F)F)CC3)CC2)c(F)c1 [Compound 081, 5-((3-fluoro-4-(4-((1-(5-(6-oxo-1,6-dihydropyridazin-3-yl)-3-(trifluoromethyl)pyridin-2-yl)piperidin-4-yl)methyl)piperazin-1-yl)phenyl)amino)-3-(piperidin-1-yl)-1,2,4-triazine-6-carboxamide]	–	< 10	–	–	–	372 AUC (h*ng/mL)/dose (mg/kg)	–
CC(=O)N[C@@H]1CCCN(c2nnc(C(N)=O)c(Nc3ccc(N4CCN(CC5CCN(c6ccc(C(=O)NC7CCC(=O)NC7=O)nc6)CC5)CC4)c(F)c3)n2)C1 (stereo partly drawn) [Compound 092, 3-((R)-3-acetamidopiperidin-1-yl)-5-((4-(4-((1-(6-((2,6-dioxopiperidin-3-yl)carbamoyl)pyridin-3-yl)piperidin-4-yl)methyl)piperazin-1-yl)-3-fluorophenyl)amino)-1,2,4-triazine-6-carboxamide]	–	< 10	90	0.24	41	–	3.28
NC(=O)c1nnc(N2CCOCC2)nc1Nc1ccc(N2CCN(CC3CCN(c4ccc(C(=O)NC5CCC(=O)NC5=O)nc4)CC3)CC2)c(F)c1 (stereo not drawn) [Compound 100, 5-((4-(4-((1-(6-((2,6-dioxopiperidin-3-yl)carbamoyl)pyridin-3-yl)piperidin-4-yl)methyl)piperazin-1-yl)-3-fluorophenyl)amino)-3-morpholino-1,2,4-triazine-6-carboxamide]	–	< 10	–	0.39	–	–	3.83

Continued, in another order:

DNAUC (Mouse absorption test)	DC50 (BTK) [nM]	Thalf (min) Mouse [1] [min]	IC50 (OCI-LY10 cells) [nM]	Thalf (min) Human [2] [min]	DNAUC (Rat absorption test)	SMILES	IC50 (Mino cells) [nM]
1941 AUC (h*ng/mL)/dose (mg/kg)	< 10	–	–	–	–	NC(=O)c1nnc(N2CCCCC2)nc1Nc1ccc(N2CCC(CN3CCN(c4ccc5c(c4)C(=O)N(C4CCC(=O)NC4=O)C5=O)CC3)CC2)c(F)c1 (stereo not drawn) [Compound 044, 5-((4-(4-((4-(2-(2,6-dioxopiperidin-3-yl)-1,3-dioxoisoindolin-5-yl)piperazin-1-yl)methyl)piperidin-1-yl)-3-fluorophenyl)amino)-3-(piperidin-1-yl)-1,2,4-triazine-6-carboxamide]	3.46
–	< 10	–	0.51	–	1125 AUC (h*ng/mL)/dose (mg/kg)	Cc1cc(N2CCC(CN3CCN(c4ccc(Nc5nc(N6CCCCC6)nnc5C(N)=O)cc4F)CC3)CC2)ccc1N1CCC(=O)NC1=O [Compound 075, 5-((4-(4-((1-(4-(2,4-dioxotetrahydropyrimidin-1(2H)-yl)-3-methylphenyl)piperidin-4-yl)methyl)piperazin-1-yl)-3-fluorophenyl)amino)-3-(piperidin-1-yl)-1,2,4-triazine-6-carboxamide]	1.42
–	< 10	79	1.59	57	285 AUC (h*ng/mL)/dose (mg/kg)	NC(=O)c1nnc(N2CCCCC2)nc1Nc1ccc(N2CCN(CC3CCN(c4ccc(NC5CCC(=O)NC5=O)nc4)CC3)CC2)c(F)c1 (stereo not drawn) [Compound 077, 5-((4-(4-((1-(6-((2,6-dioxopiperidin-3-yl)amino)pyridin-3-yl)piperidin-4-yl)methyl)piperazin-1-yl)-3-fluorophenyl)amino)-3-(piperidin-1-yl)-1,2,4-triazine-6-carboxamide]	–
–	< 10	–	0.64	–	–	COc1cc(N2CCC(CN3CCN(c4ccc(Nc5nc(N6CCCCC6)nnc5C(N)=O)cc4F)CC3)CC2)ccc1N1CCC(=O)NC1=O [Compound 082, 5-((4-(4-((1-(4-(2,4-dioxotetrahydropyrimidin-1(2H)-yl)-3-methoxyphenyl)piperidin-4-yl)methyl)piperazin-1-yl)-3-fluorophenyl)amino)-3-(piperidin-1-yl)-1,2,4-triazine-6-carboxamide]	2.3
–	< 10	–	0.57	–	579 AUC (h*ng/mL)/dose (mg/kg)	NC(=O)c1nnc(N2CCCCC2)nc1Nc1ccc(N2CCN(CC3CCN(c4ccc(C(=O)NC5CCC(=O)NC5=O)nc4)CC3)CC2)c(F)c1 (stereo not drawn) [Compound 085, 5-((4-(4-((1-(6-((2,6-dioxopiperidin-3-yl)carbamoyl)pyridin-3-yl)piperidin-4-yl)methyl)piperazin-1-yl)-3-fluorophenyl)amino)-3-(piperidin-1-yl)-1,2,4-triazine-6-carboxamide]	–
–	< 10	63	0.89	78	–	CC(=O)N[C@@H]1CCCN(c2nnc(C(N)=O)c(Nc3ccc(N4CCN(CC5CCN(c6ccc(N7CCC(=O)NC7=O)c(C)c6)CC5)CC4)c(F)c3)n2)C1 [Compound 090, (R)-3-(3-acetamidopiperidin-1-yl)-5-((4-(4-((1-(4-(2,4-dioxotetrahydropyrimidin-1(2H)-yl)-3-methylphenyl)piperidin-4-yl)methyl)piperazin-1-yl)-3-fluorophenyl)amino)-1,2,4-triazine-6-carboxamide]	1.94
